Common to all, as to format: physicochemical
Data set [1] is described as follows: Tabletting property (cracking or chipping of pressed tablets). Conditions: powder with particle size 53 to 106 μm, 0.4 g, one ton load for 30 sec, 10 tablets observed for cracking or chipping. An excerpt: The tabletting property of a particulate composition containing hydrous crystalline ascorbic acid 2-glucoside of the present invention was investigated by the following method and compared with that of a conventional particulate composition containing anhydrous crystalline ascorbic acid 2-glucoside.
A hydrous crystalline ascorbic acid 2-glucoside powder with an ascorbic acid 2-glucoside purity of 99.2% by weight, obtained by the method in Experiment 3, was sieved to collect a powder with a particle size ranging from 53 to 106 μm. The powder thus obtained was placed in a metallic mold for tabletting (11 mm diameter and 30 mm thickness) in an amount of 0.4 g, and tabletted by loading on the powder one ton for 30 sec using “SSP-10A”, a portable press machine, commercialized by Shimadzu Corp., Kyoto, Japan, followed by taking out the resulting tablets by releasing the load. The procedure was repeated 10 times to prepare 10 tablets in total. As a control, “AA2G”, a trade mark of a commercialized particulate composition containing anhydrous crystalline ascorbic acid 2-glucoside with a purity of at least 98%, commercialized by Hayashibara Biochemical Laboratories, Inc., Okayama, Japan, was used to prepare a powder with a particle size ranging from 53 to 106 μm, which was then prepared into 10 tablets by the same method as above. […]

Data set [2] in a line: Oil-holding capacity with corn oil. The note with it: for Oil-holding capacity: five grams of corn oil, particle size 53 to 106 μm, powder added until end point. The protocol: Using a particulate composition containing hydrous crystalline ascorbic acid 2-glucoside obtained by the method in Experiment 3-2, the oil-holding capacity of the particulate composition was determined. As a control, “AA2G”, a product name of a commercialized particulate composition containing anhydrous crystalline ascorbic acid 2-glucoside with a purity of at least 98% by weight, commercialized by Hayashibara Biochemical Laboratories, Inc., Okayama, Japan, was used.
The measurements for oil-holding capacity of the particulate compositions were conducted as follows in accordance with the method disclosed in Japanese Patent Kokai No. 31650/84. Five grams of a corn oil (a reagent grade specimen, Lot No.: WKL1215, commercialized by Wako Pure Chemical Industries, Osaka, Japan, was placed in a 50-ml plastic container, to which was gradually added while stirring the particulate composition containing hydrous crystalline ascorbic acid 2-glucoside or the particulate composition containing anhydrous crystalline ascorbic acid 2-glucoside, both of which had been adjusted to give a particle size of 53 to 106 μm similarly as in Experiment 6. Although the resulting mixture retains a free-flowing ability while the additive amount of any of the particulate compositions is relatively low, but it increases its viscosity as the increase of the additive amount and becomes a clump in due course. As the additive amount further increases, the clump increases its hardness and finally it could not keep together and begins to be unstiffen. The moment was regarded as the end point and the oil-holding capacity was determined by the following equation based on the amount of each crystalline particulate composition that had been added until the end point.

Data set [3] can be described thus: Tablet hardness measured on a rheometer. Conditions: tablet of Experiment 6, RHEOMETER CR-500DX. An excerpt:
During the preparation of tablets, the particulate composition was frequently observed, as a causative of cracking, to be adhered to a cylinder (punch) of the portable press machine at the stage of releasing the load and it induced cracking at the stage of taking out from the metallic mold of the press machine.

Setting [4] is: listed as particulate composition containing anhydrous crystalline ascorbic acid 2-glucosi.
The mark [5] stands for this setting: listed as particulate composition containing hydrous crystalline ascorbic acid 2-glucoside.

Structures are written as SMILES.

For the molecule `O=C1O[C@H]([C@@H](O)CO)C(O)=C1O[C@H]1O[C@H](CO)[C@@H](O)[C@H](O)[C@H]1O` [Particulate composition containing anhydrous crystalline asc] [2-O-α-D-glucosyl-L-ascorbic acid], the Tablet form entry in data set [1] (setting [4]) is listed as “cracking or chipping was observed in 9 out of 10 tablets”. Besides, the Oil-holding capacity in data set [2] and in data set [2] (setting [4]) was 25.2 throughout.

Take `O=C1O[C@H]([C@@H](O)CO)C(O)=C1O[C@H]1O[C@H](CO)[C@@H](O)[C@H](O)[C@H]1O` [Particulate composition containing hydrous crystalline ascor] [2-O-α-D-glucosyl-L-ascorbic acid]: the Tablet form result in data set [1] (setting [5]) is reported as “neither cracking nor chipping was observed in all the 10 tablets”. In addition, the “degree of hardness of tablet” value in data set [3] was “about 90 N”. For the same molecule, the Oil-holding capacity in data set [2] and in data set [2] (setting [5]) was 38.3 throughout. In data set [2] (hydrous versus anhydrous particulate composition), the “Oil-holding capacity relative to the anhydrous crystalline control” value is “about 1.5 folds”.

These data come from US9206215B2, “Hydrous crystalline 2-O-α-D-glucosyl-L-ascorbic acid, particulate composition comprising the same, their preparation and uses” (HAYASHIBARA CO., LTD., priority 2010, dated 2015).
